Measured values: US12527781B2, “Treatment of neurodegenerative conditions by disruption of Rhes” (The Regents of the University of California, priority 2017, dated 2026)
“Also recorded” adds a separate entry of the source.

Legend:
rTg4510 mouse [1] = test: nest building / nest shredding behaviour in rTg4510 mice; assay type: in vivo; conditions: prolonged oral 80 mg/Kg/day
Description: FIG. 2. FIG. 2 is a boxplot depicting qualitative scores for mice in shredding nest material for control mice and in the tau mouse model rTg4510 expressing human mutant tau P301L, with efficient shredding scored at 3.5 or higher. Control litter-mates where able to shred their nest material efficiently while rTg4510 mice lost their ability in an age-related matter (score less than 1).
As transgenic mice age, they display progressive worsening that begins with impaired marble burial and nest shredding and by 30 weeks progresses to hyperexcitability, restlessness in response to human approach and obsessive circling. […] Nest building was assessed at 20 weeks. […] At five weeks, littermate controls and transgenic mice produced nests with similar scores.

[2] = test system: Mouse cultured neurons overexpressing Rhes; test: accumulation of phosphorylated tau in cultured neurons overexpressing Rhes; assay type: cell-based; conditions: increasing concentrations, assayed between 25 to 250 nM
Description: FIG. 1. Mouse cultured neurons overexpressing Rhes display an aberrant accumulation of phosphorylated tau. […] The two lines represent results for separate culture replications.
Mouse cultured neurons overexpressing Rhes display an aberrant accumulation of phosphorylated tau.

rTg4510 mouse [3] = test: tau pathology in rTg4510 mice (MC1 immunoreactivity, coronal brain area, Iba1 microglia); assay type: in vivo
Description: These mice develop tau tangles in the cerebral cortex by 4 months of age and in the hippocampus by 5.5 months. By 5.5 months, the mice also lose about 60% of their hippocampal CA1 neurons. Spatial memory deficits become apparent by 2.5 to 4 months of age; however electrophysiological properties of cortical neurons are detected before the accumulation of tau pathology. […] MC1 immunoreactivity, corresponding to neurofibrillary tangles throughout hippocampus, amygdala, entorhinal cortex and cerebrocortex, was first detected at ˜16 weeks and progressed by 20 weeks to a mean of 92.99±13.626 MC1^+ cells/mm^2 in the cerebral cortex, and 67.57±13.113 cells/mm^2 in the hippocampus.
Lonafarnib treatment was initiated when the animals were ten weeks old. The drug was resuspended in 20% HBCD and gavage fed, five days on and five days off at 80 mg/Kg/day. The drug was remarkably effective in reducing MC1 immunoreactivity.

[4] = test system: lysosomal protein degradation; test: proteolysis of long-half-life proteins after 3H-leucine pulse; assay type: cell-based; conditions: 48 h pulse with 3H-leucine; NH4Cl and leupeptin present
Description: To assess this possibility, proteolysis of long-half-life proteins was evaluated after a long pulse (48 h) with ^3H-leucine.

[5] = cited from earlier work
NIH3T3 mouse fibroblasts = test: macroautophagy flux with tandem reporter mCherry-GFP-LC3B; assay type: cell-based

NC(=O)N1CCC(CC(=O)N2CCC([C@H]3c4ncc(Br)cc4CCc4cc(Cl)cc(Br)c43)CC2)CC1 [Lonafarnib]
nest shredding / nest building (rTg4510 mouse [1]; absence of Doxycicline (L80), chronic intermittent from ten weeks, assessed at 20 weeks, 80 mg/kg/day): prevented the nest shredding deficit; also recorded: rescued nest building | nest shredding (rTg4510 mouse [1]; presence of Doxycicline (L80D)): prevented the nest shredding deficit | accumulation of phosphorylated tau [2]: reduced | MC1+ cells/mm^2 in hippocampus (rTg4510 mouse [3]; 80 mg/Kg/day gavage, five days on and five days off from ten weeks, evaluated at 20 weeks, p=6.4×10^−3 vs vehicle): 13.38±2.615 MC1+ cells/mm^2 | MC1+ cells/mm^2 in cortex (rTg4510 mouse [3]; 80 mg/Kg/day gavage, five days on and five days off from ten weeks, evaluated at 20 weeks, p=7.2×10^−3 vs vehicle): 44.27±4.064 MC1+ cells/mm^2 | hippocampal microgliosis (Iba1) (rTg4510 mouse [3]; 20-week old transgenic mice vs age matched untreated transgenic mice): significantly reduced | coronal brain area (rTg4510 mouse [3]; chronic treatment, 20 weeks, vs vehicle and untreated age-matched transgenic mice): significantly larger | effect as acute intervention on tau pathology (rTg4510 mouse [3]; gavage daily for 2 weeks, 80 mg/Kg/day, 20 week-old rTg4510 mice, after tau pathology was fulminant): ineffective | proteolysis effect in the presence of NH4Cl and leupeptin [4]: abolished | efficacy and tolerability ([5]; dose of 100-150 mg/m2 body surface area): effective and well tolerated | side effects in humans ([5]; humans): few side effects in humans | number of autophagosomes (NIH3T3 mouse fibroblasts; at lower concentrations): remained unchanged | macroautophagy flux (NIH3T3 mouse fibroblasts; basal macroautophagy, NIH3T3 mCherry-GFP-LC3B): dose-dependent increase | macroautophagy flux in induced cells (NIH3T3 mouse fibroblasts; macroautophagy induced by paraquat or thapsigargin): did not further increase macroautophagy flux
